In PMC6478789, “A chemical toolbox for the study of bromodomains and epigenetic signaling” (Nature Communications, 2019):

Tests used:
Experiment in all cases: Methyl transferase scintillation proximity assay
Format in all cases: biochemical
Settings in all cases: average of two measurements; for inhibition at 10 µM: read-out: MTases Inhibition (%)
[1] = biological target: T1, DNMT1 (Homo sapiens, UniProt P26358)
T1 construct: purchased DiscoverX BROMOscan (bromodomains); SGC in-house methyltransferase panel
Method in brief: (§1)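 Methylation is monitored as incorporation of tritium from ^3H-SAM into a biotinylated substrate, with cofactor and substrate near apparent Km for every enzyme. After guanidine quench and 1 h plate capture, CPM is scaled between no-enzyme background and uninhibited control.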

[2] = biological target: T2, SMYD3 (Homo sapiens, UniProt Q9H7B4)
T2 construct: purchased DiscoverX BROMOscan (bromodomains); SGC in-house methyltransferase panel
T2 sequence (Q9H7B4 1-428): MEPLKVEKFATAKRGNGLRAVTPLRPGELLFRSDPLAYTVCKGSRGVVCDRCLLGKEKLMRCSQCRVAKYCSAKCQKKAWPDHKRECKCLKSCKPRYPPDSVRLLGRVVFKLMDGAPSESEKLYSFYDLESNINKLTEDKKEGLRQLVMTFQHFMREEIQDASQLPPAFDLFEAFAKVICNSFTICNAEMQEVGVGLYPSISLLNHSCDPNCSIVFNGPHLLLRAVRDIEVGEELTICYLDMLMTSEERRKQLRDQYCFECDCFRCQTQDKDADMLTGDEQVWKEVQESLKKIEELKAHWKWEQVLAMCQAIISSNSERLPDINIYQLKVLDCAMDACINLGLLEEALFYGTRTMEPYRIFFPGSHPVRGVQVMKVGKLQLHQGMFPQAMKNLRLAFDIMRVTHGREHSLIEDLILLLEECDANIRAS
Method in brief: as §1

[3] = biological target: T3, PRDM9 (Homo sapiens, UniProt Q9NQV7)
T3 construct: purchased DiscoverX BROMOscan (bromodomains); SGC in-house methyltransferase panel
Method in brief: as §1

[4] = biological target: T4, PRMT5 (Homo sapiens, UniProt O14744)
T4 construct: purchased DiscoverX BROMOscan (bromodomains); SGC in-house methyltransferase panel
Method in brief: as §1

[5] = biological target: T5, G9A (Homo sapiens, UniProt Q96KQ7)
T5 construct: purchased DiscoverX BROMOscan (bromodomains); SGC in-house methyltransferase panel
T5 sequence (Q96KQ7 1-1210): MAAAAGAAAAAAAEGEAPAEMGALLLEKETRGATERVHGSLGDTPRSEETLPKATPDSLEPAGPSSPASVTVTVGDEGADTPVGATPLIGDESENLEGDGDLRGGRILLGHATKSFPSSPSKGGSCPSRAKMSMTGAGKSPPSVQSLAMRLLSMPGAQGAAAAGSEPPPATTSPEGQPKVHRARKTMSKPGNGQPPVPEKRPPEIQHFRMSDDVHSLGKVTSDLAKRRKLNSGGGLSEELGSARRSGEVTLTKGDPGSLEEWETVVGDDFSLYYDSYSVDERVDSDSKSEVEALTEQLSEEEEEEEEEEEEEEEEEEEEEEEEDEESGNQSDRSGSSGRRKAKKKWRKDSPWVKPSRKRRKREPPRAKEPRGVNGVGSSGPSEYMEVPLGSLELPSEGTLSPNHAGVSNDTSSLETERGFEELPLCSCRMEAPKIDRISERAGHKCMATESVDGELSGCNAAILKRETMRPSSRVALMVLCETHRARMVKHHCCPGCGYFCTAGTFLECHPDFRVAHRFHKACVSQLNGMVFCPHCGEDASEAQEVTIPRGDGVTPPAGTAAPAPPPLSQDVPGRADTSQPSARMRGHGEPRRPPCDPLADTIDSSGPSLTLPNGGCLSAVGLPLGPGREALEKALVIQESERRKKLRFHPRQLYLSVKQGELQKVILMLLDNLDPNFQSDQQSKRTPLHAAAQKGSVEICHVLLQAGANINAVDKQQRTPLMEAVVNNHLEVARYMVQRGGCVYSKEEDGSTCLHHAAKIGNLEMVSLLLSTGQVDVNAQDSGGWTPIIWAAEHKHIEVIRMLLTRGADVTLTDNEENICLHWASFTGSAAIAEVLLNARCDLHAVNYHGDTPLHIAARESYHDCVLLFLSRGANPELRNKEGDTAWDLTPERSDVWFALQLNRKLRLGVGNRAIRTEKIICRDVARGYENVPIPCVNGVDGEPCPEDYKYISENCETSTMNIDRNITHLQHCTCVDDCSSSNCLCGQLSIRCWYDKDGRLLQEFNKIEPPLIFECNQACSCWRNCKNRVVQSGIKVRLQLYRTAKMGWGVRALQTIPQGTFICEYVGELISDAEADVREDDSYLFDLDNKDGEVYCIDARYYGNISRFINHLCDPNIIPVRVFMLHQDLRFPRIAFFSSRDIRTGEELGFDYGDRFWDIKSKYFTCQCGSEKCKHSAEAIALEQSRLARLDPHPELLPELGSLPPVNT
Method in brief: as §1

[6] = biological target: T6, PRMT4 (Homo sapiens, UniProt Q86X55)
T6 construct: purchased DiscoverX BROMOscan (bromodomains); SGC in-house methyltransferase panel
T6 sequence (Q86X55 1-608): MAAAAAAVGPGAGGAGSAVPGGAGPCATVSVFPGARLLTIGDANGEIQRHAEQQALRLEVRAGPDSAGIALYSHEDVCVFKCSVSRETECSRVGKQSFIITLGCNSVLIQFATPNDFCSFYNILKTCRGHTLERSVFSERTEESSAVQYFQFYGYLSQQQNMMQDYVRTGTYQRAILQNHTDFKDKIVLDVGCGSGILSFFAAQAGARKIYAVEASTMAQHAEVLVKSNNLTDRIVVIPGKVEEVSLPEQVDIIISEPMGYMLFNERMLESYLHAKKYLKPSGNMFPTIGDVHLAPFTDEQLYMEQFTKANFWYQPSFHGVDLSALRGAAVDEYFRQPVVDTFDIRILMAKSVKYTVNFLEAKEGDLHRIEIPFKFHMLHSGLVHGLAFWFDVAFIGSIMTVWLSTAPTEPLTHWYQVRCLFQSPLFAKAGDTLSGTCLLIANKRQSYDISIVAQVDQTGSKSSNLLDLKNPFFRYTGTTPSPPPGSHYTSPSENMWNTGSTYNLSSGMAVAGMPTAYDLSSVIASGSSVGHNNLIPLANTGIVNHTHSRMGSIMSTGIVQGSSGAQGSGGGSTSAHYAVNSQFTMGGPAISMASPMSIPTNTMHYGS
Method in brief: as §1

[7] = biological target: T7, DOT1L (Homo sapiens, UniProt Q8TEK3)
T7 construct: purchased DiscoverX BROMOscan (bromodomains); SGC in-house methyltransferase panel
Method in brief: as §1

[8] = biological target: T8, MLL3 (pentameric) (Homo sapiens, UniProt Q8NEZ4)
T8 construct: purchased DiscoverX BROMOscan (bromodomains); SGC in-house methyltransferase panel
Method in brief: as §1

T4 sequence (O14744 whole entry): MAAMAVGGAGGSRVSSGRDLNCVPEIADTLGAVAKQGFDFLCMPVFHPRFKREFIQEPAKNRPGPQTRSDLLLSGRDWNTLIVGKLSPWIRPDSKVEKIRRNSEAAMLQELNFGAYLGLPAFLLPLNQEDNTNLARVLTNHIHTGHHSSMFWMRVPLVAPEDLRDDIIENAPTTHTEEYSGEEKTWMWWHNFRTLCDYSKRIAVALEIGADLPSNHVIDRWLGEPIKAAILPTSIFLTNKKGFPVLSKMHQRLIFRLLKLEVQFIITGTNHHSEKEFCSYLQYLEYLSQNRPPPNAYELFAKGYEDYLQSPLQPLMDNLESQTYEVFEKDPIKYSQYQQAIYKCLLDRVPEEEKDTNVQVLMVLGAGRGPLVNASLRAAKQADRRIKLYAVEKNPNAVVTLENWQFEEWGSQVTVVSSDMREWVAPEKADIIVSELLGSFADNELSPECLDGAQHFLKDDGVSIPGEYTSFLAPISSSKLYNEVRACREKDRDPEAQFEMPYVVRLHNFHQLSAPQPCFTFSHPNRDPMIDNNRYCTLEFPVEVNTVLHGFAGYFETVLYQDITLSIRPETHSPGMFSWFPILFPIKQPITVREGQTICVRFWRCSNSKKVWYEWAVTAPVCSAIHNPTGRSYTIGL
T4 sequence (Q9BQA1 whole entry partner): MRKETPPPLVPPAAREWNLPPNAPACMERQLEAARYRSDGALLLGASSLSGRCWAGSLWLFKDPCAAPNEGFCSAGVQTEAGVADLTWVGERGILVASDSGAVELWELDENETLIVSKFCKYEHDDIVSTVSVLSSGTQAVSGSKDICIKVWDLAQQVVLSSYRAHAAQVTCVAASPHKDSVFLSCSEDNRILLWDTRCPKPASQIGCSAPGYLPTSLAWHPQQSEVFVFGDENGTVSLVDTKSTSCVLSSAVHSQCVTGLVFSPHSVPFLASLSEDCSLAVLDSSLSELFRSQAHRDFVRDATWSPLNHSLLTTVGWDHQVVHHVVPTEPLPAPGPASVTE
T7 sequence (Q8TEK3 whole entry): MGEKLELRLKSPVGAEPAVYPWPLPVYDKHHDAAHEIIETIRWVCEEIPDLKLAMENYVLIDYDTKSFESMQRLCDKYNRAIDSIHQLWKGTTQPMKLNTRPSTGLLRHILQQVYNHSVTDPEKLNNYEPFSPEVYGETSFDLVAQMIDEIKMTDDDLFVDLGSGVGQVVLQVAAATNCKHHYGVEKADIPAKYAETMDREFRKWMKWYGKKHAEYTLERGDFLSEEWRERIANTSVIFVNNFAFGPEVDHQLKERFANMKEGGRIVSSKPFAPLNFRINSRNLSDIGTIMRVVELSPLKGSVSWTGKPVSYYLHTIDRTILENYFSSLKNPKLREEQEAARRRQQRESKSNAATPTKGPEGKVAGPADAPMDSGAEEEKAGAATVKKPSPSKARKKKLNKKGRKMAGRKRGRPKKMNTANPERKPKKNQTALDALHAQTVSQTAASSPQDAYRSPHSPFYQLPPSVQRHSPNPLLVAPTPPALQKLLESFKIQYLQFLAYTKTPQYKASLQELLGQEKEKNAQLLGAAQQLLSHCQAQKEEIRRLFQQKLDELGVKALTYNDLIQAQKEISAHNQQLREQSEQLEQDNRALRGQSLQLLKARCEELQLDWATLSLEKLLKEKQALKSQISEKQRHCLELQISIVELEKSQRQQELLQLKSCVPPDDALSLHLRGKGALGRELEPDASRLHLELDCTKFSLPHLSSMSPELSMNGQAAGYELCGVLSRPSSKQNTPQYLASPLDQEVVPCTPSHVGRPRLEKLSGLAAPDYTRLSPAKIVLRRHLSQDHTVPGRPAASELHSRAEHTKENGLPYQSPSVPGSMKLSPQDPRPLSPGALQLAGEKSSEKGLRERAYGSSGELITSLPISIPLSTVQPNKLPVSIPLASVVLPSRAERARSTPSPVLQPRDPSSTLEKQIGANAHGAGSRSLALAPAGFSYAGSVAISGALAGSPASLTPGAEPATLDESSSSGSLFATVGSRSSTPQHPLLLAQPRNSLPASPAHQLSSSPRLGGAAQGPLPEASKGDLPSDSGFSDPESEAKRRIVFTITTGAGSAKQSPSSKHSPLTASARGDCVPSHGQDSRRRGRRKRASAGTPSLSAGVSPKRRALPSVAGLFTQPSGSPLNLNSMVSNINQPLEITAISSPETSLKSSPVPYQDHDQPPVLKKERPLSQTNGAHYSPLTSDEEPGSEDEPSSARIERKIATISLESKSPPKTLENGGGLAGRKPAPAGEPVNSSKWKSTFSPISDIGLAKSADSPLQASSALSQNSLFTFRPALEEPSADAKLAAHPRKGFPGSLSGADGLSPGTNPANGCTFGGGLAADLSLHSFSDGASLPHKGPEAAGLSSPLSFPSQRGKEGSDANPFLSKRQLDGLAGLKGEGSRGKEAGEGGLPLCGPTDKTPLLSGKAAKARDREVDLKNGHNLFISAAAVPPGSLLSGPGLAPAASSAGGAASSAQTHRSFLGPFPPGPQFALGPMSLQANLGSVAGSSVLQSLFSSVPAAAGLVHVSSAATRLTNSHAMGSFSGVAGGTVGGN
T3 sequence (Q9NQV7 whole entry): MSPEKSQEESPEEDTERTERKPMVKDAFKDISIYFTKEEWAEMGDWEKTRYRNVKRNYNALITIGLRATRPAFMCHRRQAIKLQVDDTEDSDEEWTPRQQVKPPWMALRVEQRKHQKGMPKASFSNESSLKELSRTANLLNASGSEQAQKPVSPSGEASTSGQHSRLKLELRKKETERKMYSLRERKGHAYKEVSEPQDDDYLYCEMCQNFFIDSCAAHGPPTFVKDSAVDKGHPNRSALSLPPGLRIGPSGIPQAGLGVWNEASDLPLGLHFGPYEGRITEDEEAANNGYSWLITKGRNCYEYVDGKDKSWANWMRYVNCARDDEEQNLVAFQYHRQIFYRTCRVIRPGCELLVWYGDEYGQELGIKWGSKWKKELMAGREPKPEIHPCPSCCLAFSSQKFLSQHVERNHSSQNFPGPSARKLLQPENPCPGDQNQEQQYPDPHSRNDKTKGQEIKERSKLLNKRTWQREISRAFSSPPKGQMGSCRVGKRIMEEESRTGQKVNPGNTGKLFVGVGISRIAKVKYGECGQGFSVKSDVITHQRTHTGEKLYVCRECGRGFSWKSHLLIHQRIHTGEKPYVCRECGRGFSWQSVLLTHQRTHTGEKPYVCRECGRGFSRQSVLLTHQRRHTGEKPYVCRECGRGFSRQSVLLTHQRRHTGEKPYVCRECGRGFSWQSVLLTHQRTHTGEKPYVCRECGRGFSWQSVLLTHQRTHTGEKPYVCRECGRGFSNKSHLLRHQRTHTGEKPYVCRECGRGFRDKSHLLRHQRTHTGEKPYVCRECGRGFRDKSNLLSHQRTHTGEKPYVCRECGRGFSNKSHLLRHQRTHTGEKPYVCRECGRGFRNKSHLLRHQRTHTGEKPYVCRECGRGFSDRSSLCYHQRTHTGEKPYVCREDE
T1 sequence (P26358 whole entry): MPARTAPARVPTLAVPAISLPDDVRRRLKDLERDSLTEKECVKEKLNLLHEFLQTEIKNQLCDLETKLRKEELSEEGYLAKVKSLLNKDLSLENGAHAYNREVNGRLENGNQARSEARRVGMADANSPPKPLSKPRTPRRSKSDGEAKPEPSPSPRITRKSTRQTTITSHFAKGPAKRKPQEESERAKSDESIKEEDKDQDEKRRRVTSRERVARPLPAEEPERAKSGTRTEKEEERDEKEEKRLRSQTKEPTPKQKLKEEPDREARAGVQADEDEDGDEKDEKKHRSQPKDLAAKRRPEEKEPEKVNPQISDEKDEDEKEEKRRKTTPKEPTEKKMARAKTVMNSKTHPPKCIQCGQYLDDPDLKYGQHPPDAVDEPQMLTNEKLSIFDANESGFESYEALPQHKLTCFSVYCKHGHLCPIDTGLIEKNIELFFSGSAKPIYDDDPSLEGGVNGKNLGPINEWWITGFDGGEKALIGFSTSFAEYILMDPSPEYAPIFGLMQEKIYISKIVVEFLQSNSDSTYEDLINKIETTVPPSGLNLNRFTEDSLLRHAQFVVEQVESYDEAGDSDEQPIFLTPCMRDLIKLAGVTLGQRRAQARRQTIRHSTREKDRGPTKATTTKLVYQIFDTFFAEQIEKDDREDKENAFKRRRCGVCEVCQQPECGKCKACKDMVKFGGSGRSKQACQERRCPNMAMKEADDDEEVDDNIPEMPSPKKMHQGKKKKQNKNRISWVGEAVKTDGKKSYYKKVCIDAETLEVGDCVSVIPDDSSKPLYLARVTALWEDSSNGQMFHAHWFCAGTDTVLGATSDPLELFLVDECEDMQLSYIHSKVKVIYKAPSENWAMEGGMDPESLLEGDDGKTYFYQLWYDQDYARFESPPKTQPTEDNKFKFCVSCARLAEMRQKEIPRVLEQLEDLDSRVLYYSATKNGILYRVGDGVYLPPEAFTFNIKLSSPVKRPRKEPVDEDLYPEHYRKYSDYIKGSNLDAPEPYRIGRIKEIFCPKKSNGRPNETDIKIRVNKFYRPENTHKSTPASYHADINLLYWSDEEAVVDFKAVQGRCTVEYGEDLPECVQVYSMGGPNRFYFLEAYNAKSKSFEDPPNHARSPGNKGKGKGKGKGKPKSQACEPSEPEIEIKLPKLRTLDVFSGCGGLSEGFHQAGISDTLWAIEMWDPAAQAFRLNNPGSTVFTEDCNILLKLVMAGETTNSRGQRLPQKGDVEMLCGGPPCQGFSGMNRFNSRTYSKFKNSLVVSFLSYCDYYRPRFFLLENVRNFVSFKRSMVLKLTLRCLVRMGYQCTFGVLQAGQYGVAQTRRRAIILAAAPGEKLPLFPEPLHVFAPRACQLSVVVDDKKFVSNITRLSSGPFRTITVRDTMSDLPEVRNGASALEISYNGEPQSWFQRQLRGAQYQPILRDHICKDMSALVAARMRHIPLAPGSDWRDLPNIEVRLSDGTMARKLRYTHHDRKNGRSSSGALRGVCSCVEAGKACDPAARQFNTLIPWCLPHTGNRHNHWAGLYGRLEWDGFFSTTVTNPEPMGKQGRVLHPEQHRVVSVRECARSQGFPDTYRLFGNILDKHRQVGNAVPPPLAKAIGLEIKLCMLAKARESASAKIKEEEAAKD

Compound | inhibition at 10 µM [1] [%] | inhibition at 10 µM [2] [%] | inhibition at 10 µM [3] [%] | inhibition at 10 µM [4] [%] | inhibition at 10 µM [5] [%] | inhibition at 10 µM [6] [%] | inhibition at 10 µM [7] [%] | inhibition at 10 µM [8] [%] | MTases Inhibition (%) ([1]; 10µM) | MTases Inhibition (%) ([2]; 10µM) | MTases Inhibition (%) ([3]; 10µM) | MTases Inhibition (%) ([4]; 10µM) | MTases Inhibition (%) ([5]; 10µM) | MTases Inhibition (%) ([6]; 10µM) | MTases Inhibition (%) ([7]; 10µM) | MTases Inhibition (%) ([8]; 10µM)
CN(C)CCCOc1ccc(-c2cc(NCCCn3cccn3)nc(S(C)(=O)=O)n2)cc1 [TP-238] | 3 | 7 | -1 | -12 | 7 | 3 | 6 | -3 | – | – | – | – | – | – | – | –
CO[C@H]1CNC[C@@H](OCC2CCC(F)(F)CC2)[C@@H]1Nc1ncc(-c2cncc(C)c2)c2cc(C)c(=O)[nH]c12 [GSK8814] | -3 | 8 | 0 | -2 | -2 | 1 | 5 | 0 | – | – | – | – | – | – | – | –
COc1ccccc1C(=O)Nc1cc2c(cc1N1CCNC[C@H]1C)n(C)c(=O)n2C [GSK6853] | – | – | – | – | – | – | – | – | -8 | 9 | -2 | 3 | -2 | 2 | 10 | 2
CN1C[C@H](Nc2cnn(C)c(=O)c2Br)C[C@H](c2ccccc2)C1 [GSK4027] | 3 | 1 | 3 | 8 | 1 | -2 | -2 | 2 | – | – | – | – | – | – | – | –

Now from value to compound:

inhibition at 10 µM [1] [%] | inhibition at 10 µM [2] [%] | inhibition at 10 µM [3] [%] | inhibition at 10 µM [4] [%] | inhibition at 10 µM [5] [%] | inhibition at 10 µM [6] [%] | inhibition at 10 µM [7] [%] | inhibition at 10 µM [8] [%] | MTases Inhibition (%) ([1]; 10µM) | MTases Inhibition (%) ([2]; 10µM) | MTases Inhibition (%) ([3]; 10µM) | MTases Inhibition (%) ([4]; 10µM) | MTases Inhibition (%) ([5]; 10µM) | MTases Inhibition (%) ([6]; 10µM) | MTases Inhibition (%) ([7]; 10µM) | MTases Inhibition (%) ([8]; 10µM) | Compound
4 | 3 | 0 | -1 | -3 | 1 | -6 | 0 | – | – | – | – | – | – | – | – | Cc1c(NC(=O)c2cc(C(N)=O)nc3cc(F)ccc23)c(C(F)(F)F)nn1Cc1ccc(C#N)cc1 [BAY-876]
4 | 6 | 10 | 4 | 7 | 25 | 3 | 0 | – | – | – | – | – | – | – | – | COc1cc(Cl)c(C(=O)N[C@@H](CN[C@H]2CC[C@@H](N)CC2)Cc2ccc(C#N)cc2)cc1-c1ccc(CN[C@H](C)c2ccc(C)cc2)o1 [BAY-850]
3 | 10 | 4 | -3 | -3 | 6 | 1 | 1 | – | – | – | – | – | – | – | – | Cc1nnc2c3ccccc3c(N[C@@H](C)[C@H](c3ccccc3)N(C)C)nn12 [L-Moses]
9 | 7 | 3 | 4 | 3 | 9 | 3 | 7 | – | – | – | – | – | – | – | – | Cc1c(NC(=O)c2cc(C(N)=O)nc3cc(F)ccc23)c(C(F)(F)F)nn1Cc1ccc(C(C)(C)C)cc1 [BAY-588]
